Biological target: CFTR-mediated chloride transport (Homo sapiens, UniProt P13569)
Test: Corrector Assay A - membrane potential dye assay (enteroid cells)
Settings: for Corrector Assay A % activity: % of chloride transport of triple combination control (1 μM (14S)-dispiro macrocycle + 3 μM tezacaftor + 300 nM ivacaftor); for EC50: read-out: Corrector Assay A EC50, human intestinal enteroid cells, 18-24 h incubation, acute 10 μM forskolin + 300 nM ivacaftor
Protocol: Base medium (ADF+++) consisted of Advanced DMEM/Ham's F12, 2 mM Glutamax, 10 mM HEPES, 1 μg/ml penicillin/streptomycin.
Intestinal enteroid maintenance medium (IEMM) consisted of ADF+++, 1×B27 supplement, 1×N2 supplement, 1.25 mM N-acetyl cysteine, 10 mM Nicotinamide, 50 ng/mL hEGF, 10 nM Gastrin, 1 μg/mL hR-spondin-1, 100 ng/mL hNoggin, TGF-b type 1 inhibitor A-83-01, 100 μg/mL Primocin, 10 μM P38 MAPK inhibitor SB202190.
Bath 1 Buffer consisted of 1 mM MgCl2, 160 mM NaCl, 4.5 mM KCl, 10 mM HEPES, 10 mM Glucose, 2 mM CaCl2).
Chloride Free Buffer consisted of 1 mM Magnesium Gluconate, 2 mM Calcium Gluconate, 4.5 mM Potassium Gluconate, 160 mM Sodium Gluconate, 10 mM HEPES, 10 mM Glucose.
Bath 1 Dye Solution consisted of Bath 1 Buffer, 0.04% Pluronic F127, 20 μM Methyl Oxonol, 30 μM CaCCinh-A01, 30 μM Chicago Sky Blue.
Chloride Free Dye Solution consisted of Chloride Free Buffer, 0.04% Pluronic F127, 20 μM Methyl Oxonol, 30 μM CaCCinh-A01, 30 μM Chicago Sky Blue.
Chloride Free Dye Stimulation Solution consisted of Chloride Free Dye Solution, 10 μM forskolin, 100 μM IBMX, and 300 nM Ivacaftor.
Cells were recovered in cell recovery solution, collected by centrifugation at 650 rpm for 5 min at 4° C., resuspended in TryPLE and incubated for 5 min at 37° C. Cells were then collected by centrifugation at 650 rpm for 5 min at 4° C. and resuspended in IEMM containing 10 μM ROCK inhibitor (RI). The cell suspension was passed through a 40 μm cell strainer and resuspended at 1×10^6 cells/mL in IEMM containing 10 μM RI. Cells were seeded at 5000 cells/well into multi-well plates and incubated for overnight at 37° C., 95% humidity and 5% CO2 prior to assay.
Briefly, cells were washed 5 times in Bath 1 Buffer. Bath 1 Dye Solution was added and the cells were incubated for 25 min at room temperature. Following dye incubation, cells were washed 3 times in Chloride Free Dye Solution. Chloride transport was initiated by addition of Chloride Free Dye Stimulation Solution and the fluorescence signal was read for 15 min. The CFTR-mediated chloride transport for each condition was determined from the AUC of the fluorescence response to acute forskolin and 300 nM N-[2,4-bis(1,1-dimethylethyl)-5-hydroxyphenyl]-1,4-dihydro-4-oxoquinoline-3-carboxamide stimulation. Chloride transport was then expressed as a percentage of the chloride transport following treatment with 1 μM (14S)-8-[3-(2-{Dispiro[2.0.2.1]heptan-7-yl}ethoxy)-1H-pyrazol-1-yl]-12,12-dimethyl-2λ^6-thia-3,9,11,18,23-pentaazatetracyclo[17.3.1.111,14.05,10]tetracosa-1(22),5,7,9,19(23),20-hexaene-2,2,4-trione, 3 μM (R)-1-(2,2-difluorobenzo[d][1,3]dioxol-5-yl)-N-(1-(2,3-dihydroxypropyl)-6-fluoro-2-(1-hydroxy-2-methylpropan-2-yl)-1H-indol-5-yl)cyclopropanecarboxamide and 300 nM acute N-[2,4-bis(1,1-dimethylethyl)-5-hydroxyphenyl]-1,4-dihydro-4-oxoquinoline-3-carboxamide triple combination control (% Activity).

Row | Corrector Assay A % activity | EC50 | Structure (SMILES)
1 | +++ (+++ is >60%) | < 1000 nM | CC(C)(C)NC(=O)CCCC1CC[C@@H]2CN(c3nc(C(C)(C)C)ccc3C(=O)NS(=O)(=O)c3cccc(n3)N1)C(C)(C)C2 (stereo partly drawn) [Compound 16, N-tert-butyl-4-[(14S)-8-tert-butyl-12,12-dimethyl-2,2,4-trioxo-2λ^6-thia-3,9,11,18,23-pentaazatetracyclo[17.3.1.111,14.05,10]tetracosa-1(23),5(10),6,8,19,21-hexaen-17-yl]butanamide]
2 | + (+ is <30%) | 1000 to 3000 nM | CC1(C)C[C@@H]2CC[C@@H](c3ccccn3)Nc3cccc(n3)S(=O)(=O)NC(=O)c3ccc(C#N)nc3N1C2 [Compound 192]
3 | ++ (++ is 30-60%) | < 1000 nM | CN(C)CCNc1cccc([C@H]2CC[C@@H]3CN(c4nc(C(C)(C)C)ccc4C(=O)NS(=O)(=O)c4cccc(n4)N2)C(C)(C)C3)n1 [Compound 189]
4 | +++ (+++ is >60%) | < 1000 nM | CC1(C)CCCc2cc3c(nc21)N1C[C@@H](CCC(c2ccccn2)Nc2cccc(n2)S(=O)(=O)NC3=O)CC1(C)C (single isomer, unassigned) [Compound 263]
5 | +++ (+++ is >60%) | < 1000 nM | CC(C)(C)C#Cc1ccc2c(n1)N1C[C@@H](CC[C@H](c3ccccn3)Nc3cccc(n3)S(=O)(=O)NC2=O)CC1(C)C [Compound 177]
6 | +++ (+++ is >60%) | < 1000 nM | CC(C)(C)c1ccc2c(n1)N1C[C@@H](CCC(C3CCN(C(=O)OCc4ccccc4)CC3)Nc3cccc(n3)S(=O)(=O)NC2=O)CC1(C)C (single isomer, unassigned) [Compound 255]
7 | +++ (+++ is >60%) | < 1000 nM | CC1(C)C[C@@H]2CC[C@H](c3ccccn3)Nc3cccc(n3)S(=O)(=O)NC(=O)c3ccc(N4CCN(CC5CC5)C4=O)nc3N1C2 [Compound 331]
8 | +++ (+++ is >60%) | < 1000 nM | CC(C)(C)c1ccc2c(n1)N1C[C@@H](CCC(c3ccc(C4CCOCC4)cn3)Nc3cccc(n3)S(=O)(=O)NC2=O)CC1(C)C (single isomer, unassigned) [Compound 155]
9 | ++ (++ is 30-60%) | < 1000 nM | CC(C)(C)c1ccc2c(n1)N1C[C@@H](CCC(c3ccc(N)cn3)Nc3cccc(n3)S(=O)(=O)NC2=O)CC1(C)C (stereo partly drawn) [Compound 64, (14S)-17-(5-aminopyridin-2-yl)-8-tert-butyl-12,12-dimethyl-2λ^6-thia-3,9,11,18,23-pentaazatetracyclo[17.3.1.111,14.05,10]tetracosa-1(23),5(10),6,8,19,21-hexaene-2,2,4-trione]
10 | ++ (++ is 30-60%) | < 1000 nM | COCCc1ccc(C2CC[C@@H]3CN(c4nc(C(C)(C)C)ccc4C(=O)NS(=O)(=O)c4cccc(n4)N2)C(C)(C)C3)nc1 (stereo partly drawn) [Compound 111]
11 | + (+ is <30%) | > 3000 nM | CC(C)(C)c1ccc2c(n1)N1CC(CCN(c3ccccc3)C(=O)c3cccc(c3)S(=O)(=O)NC2=O)CC1(C)C (single isomer, unassigned) [Compound 267, 8-tert-Butyl-12,12-dimethyl-17-phenyl-2λ^6-thia-3,9,11,17-tetraazatetracyclo[17.3.1.111,14.05,10]tetracosa-1(22),5,7,9,19(23),20-hexaene-2,2,4,18-tetrone]
12 | + (+ is <30%) | > 3000 nM | CC(C)(C)c1ccc2c(n1)N1C[C@@H](CCC(c3ncccc3Cl)Nc3cccc(n3)S(=O)(=O)NC2=O)CC1(C)C (single isomer, unassigned) [Compound 66]
13 | +++ (+++ is >60%) | < 1000 nM | Cc1cccc(C)c1[C@@H]1CC[C@@H]2CN(c3nc(C(C)(C)C)ccc3C(=O)NS(=O)(=O)c3cccc(n3)N1)C(C)(C)C2 (single isomer, unassigned) [Compound 243]
14 | ++ (++ is 30-60%) | > 3000 nM | CC(C)(C)c1ccc2c(n1)N1C[C@@H](CCC(C3CCNCC3)Nc3cccc(n3)S(=O)(=O)NC2=O)CC1(C)C (single isomer, unassigned) [Compound 248]
15 | +++ (+++ is >60%) | < 1000 nM | CC(C)(C)c1ccc2c(n1)N1C[C@@H](CC[C@H](c3cccc(CN)n3)Nc3cccc(n3)S(=O)(=O)NC2=O)CC1(C)C [Compound 203, (14S,17R)-17-[6-(aminomethyl)pyridin-2-yl]-8-tert-butyl-12,12-dimethyl-2λ^6-thia-3,9,11,18,23-pentaazatetracyclo[17.3.1.111,14.05,10]tetracosa-1(22),5,7,9,19(23),20-hexaene-2,2,4-trione]
16 | ++ (++ is 30-60%) | < 1000 nM | CC(C)(C)c1ccc2c(n1)N1C[C@@H](CCC(c3ccc(N4CCCCC4)cn3)Nc3cccc(n3)S(=O)(=O)NC2=O)CC1(C)C (stereo partly drawn) [Compound 185]

Row | Corrector Assay A % activity | EC50 | Structure (SMILES)
17 | ++ (++ is 30-60%) | < 1000 nM | CC(C)(C)c1ccc2c(n1)N1C[C@@H](CCC(c3ccc(CCC#N)cn3)Nc3cccc(n3)S(=O)(=O)NC2=O)CC1(C)C (single isomer, unassigned) [Compound 145]
18 | + (+ is <30%) | – | Cc1cccc(C)c1[C@H]1CC[C@@H]2CN(c3nc(C(C)(C)C)ccc3C(=O)NS(=O)(=O)c3cccc(n3)N1)C(C)(C)C2 (single isomer, unassigned) [Compound 242]
19 | ++ (++ is 30-60%) | 1000 to 3000 nM | CC1CCC2CN(c3nc(C(C)(C)C)ccc3C(=O)NS(=O)(=O)c3ccn1n3)C(C)(C)C2 (single isomer, unassigned) [Compound 273]
20 | +++ (+++ is >60%) | < 1000 nM | COc1cccc(-c2ccc3c(n2)N2C[C@@H](CC[C@H](c4ccccn4)Nc4cccc(n4)S(=O)(=O)NC3=O)CC2(C)C)c1 [Compound 339]
21 | ++ (++ is 30-60%) | < 1000 nM | CC(C)(C)c1ccnc(C2CC[C@@H]3CN(c4nc(C(C)(C)C)ccc4C(=O)NS(=O)(=O)c4cccc(n4)N2)C(C)(C)C3)c1 (single isomer, unassigned) [Compound 76]
22 | +++ (+++ is >60%) | < 1000 nM | CC1(C)OCCc2cc3c(nc21)N1C[C@@H](CCC(c2ccccn2)Nc2cccc(n2)S(=O)(=O)NC3=O)CC1(C)C (single isomer, unassigned) [Compound 212]
23 | + (+ is <30%) | – | CC(C)(C)c1ccc2c(n1)N1CC(CC1(C)C)OCCNc1cccc(n1)S(=O)(=O)NC2=O (single isomer, unassigned) [Compound 258, 8-tert-butyl-12,12-dimethyl-15-oxa-2λ^6-thia-3,9,11,18,23-pentaazatetracyclo[17.3.1.111,14.05,10]tetracosa-1(22),5(10),6,8,19(23),20-hexaene-2,2,4-trione]
24 | ++ (++ is 30-60%) | < 1000 nM | CC1(C)C[C@@H]2CC[C@@H](c3ccccn3)Nc3cccc(n3)S(=O)(=O)NC(=O)c3ccc(-c4c(Cl)cccc4Cl)nc3N1C2 [Compound 342]
25 | ++ (++ is 30-60%) | 1000 to 3000 nM | CN(C)CC(=O)N1CCC([C@@H]2CC[C@@H]3CN(c4nc(C(C)(C)C)ccc4C(=O)NS(=O)(=O)c4cccc(n4)N2)C(C)(C)C3)CC1 (single isomer, unassigned) [Compound 237]
26 | +++ (+++ is >60%) | < 1000 nM | CC(C)(C)c1ccc2c(n1)N1C[C@@H](CC[C@H](c3cccc(C4CNC4)n3)Nc3cccc(n3)S(=O)(=O)NC2=O)CC1(C)C [Compound 152]
27 | +++ (+++ is >60%) | < 1000 nM | CC1(C)C[C@@H]2CCC(c3ccccn3)Nc3cccc(n3)S(=O)(=O)NC(=O)c3ccc(-n4ccc(OCCC5C6(CC6)C56CC6)n4)nc3N1C2 (stereo partly drawn) [Compound 355, (14S)-8-[3-(2-{dispiro[2.0.2.1]heptan-7-yl}ethoxy)-1H-pyrazol-1-yl]-12,12-dimethyl-17-(pyridin-2-yl)-2λ^6-thia-3,9,11,18,23-pentaazatetracyclo[17.3.1.111,14.05,10]tetracosa-1(22),5,7,9,19(23),20-hexaene-2,2,4-trione]
28 | ++ (++ is 30-60%) | < 1000 nM | CC1(C)C[C@@H]2CC[C@@H](c3ccccn3)Nc3cccc(n3)S(=O)(=O)NC(=O)c3ccc(-c4c(F)cccc4Cl)nc3N1C2 [Compound 344]
29 | +++ (+++ is >60%) | < 1000 nM | CC(C)(C)c1ccc2c(n1)N1C[C@@H](CCC(CC(O)CO)Nc3cccc(n3)S(=O)(=O)NC2=O)CC1(C)C (single isomer, unassigned) [Compound 33]
30 | ++ (++ is 30-60%) | < 1000 nM | CC(C)(C)c1ccc2c(n1)N1C[C@@H](CCC(c3ccc(CN)cn3)Nc3cccc(n3)S(=O)(=O)NC2=O)CC1(C)C (single isomer, unassigned) [Compound 197]
31 | + (+ is <30%) | > 3000 nM | CC(C)(C)c1ccc2c(n1)N1C[C@@H](CC[C@@H](c3ncccc3Br)Nc3cccc(n3)S(=O)(=O)NC2=O)CC1(C)C (single isomer, unassigned) [Compound 54]
